Paper PMC7531004, “Discovery of gramicidin A analogues with altered activities by multidimensional screening of a one-bead-one-compound library” (Nature Communications, 2020)
Where a SMILES comes first, the peptide text is derived from it. [ ]: non-standard residue; d: D form. The star is where a group is joined. NHCH2CH2OH = OCCN*; For = O=C*

Tests used:
[1] = system: P388 mouse leukemia cells; conditions: 92 h
From the text: Each type of assay must be simplified and miniaturized to assess the activities of the library peptides in a 96-well format for the high-throughput screening. […]
Mammalian cytotoxicity assay of bead-derived peptides . P388 cells were obtained from Institute of
Development Aging and Cancer (Tohoku University). The cells were maintained with growth medium
[RPMI1640 with phenol red ( Fujifilm Wako Pure Chemical) supplemented with 10% heat -inactivated fetal
bovine serum, pe nicillin G (100 units/mL), and streptomycin (100 µg/mL)] under atmosphere of 5% CO 2 at
The collected cells were resuspended into
the growth medium at 2 × 10^4 cells/mL. The stock solutions of the peptide library were 250-fold diluted
with the growth medium. Aliquots of the medium (100 µL) containing peptides and the latter medium
containing P388 cells (100 µL) were mixed in a 96-well cell culture plate (TR5003, TrueLine). The final
concentration of P388 cells was 1 × 10^4 cells/mL. After incubation under atmosphere of 5% CO2 at 37 °C
for 92 h, the numbers of viable cells were determined by
2-(4-iodophenyl)-3-(4-nitrophenyl)-5-(2,4-disulfophenyl)-2H-tetrazolium, monosodium salt (WST-1) assay.
A solution of 1-methoxy-5-methylphenazinium methyl sulfate (1-methoxy PMS) and WST-1 in the growth
medium (1-methoxy PMS 0.70 mg/mL in Milli-Q/WST-1 3.6 mg/mL in pH 7.4 HEPES buffer = 1/9) was
added to each well of the plate (10.0 µL/well). The plate was incubated for 4 h under atmosphere of 5% CO2
at 37 °C. The absorbance of each well at 415 nm was measured using a Benchmark microplate reader
(Bio-Rad). The cytotoxicities were evaluated as cell viability (%). […]

[2] = H+/Na+ transport assay of bead-derived peptides (one-point); type: biochemical; parameters: key: relative activity; mean of two control wells = 1.00; conditions: bead-derived peptide solution, EYPC/EYPG LUVs;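 note: relative to parent gramicidin A activity set to 1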
Method: (§1) Each type of assay must be simplified and miniaturized to assess the activities of the library peptides in a 96-well format for the high-throughput screening.
H+/Na+ transport assay of bead-derived peptides.1,2,3 Trisodium 8-hydroxypyrene-1,3,6-trisulfonate
mini-extruder apparatus (Avanti Polar Lipids).
28.9 µmol) in CHCl3 (225 µL) and egg yolk phosphatidylglycerol (1.20 mg, 1.56 µmol) in CHCl3 (60.0 µL)
The thin film was hydrated and
1.0 mM pyranine) by sonication.
A suspension of the LUVs was immediately
used for the H+/Na+ transport assay.
The diluted solution of peptide
flat-bottom 96-well plate (655086, Greiner bio-one).
was vortexed at room temperature for 30 min.
(5/95, 3.0 µL) and the LUV suspension were mixed in each plate to determine 100% lysis. The untreated
LUV suspension was used to determine 0% lysis.
normalized against 100% lysis by Triton X-100 (Imax) and 0% lysis (I0) as following, where Ix is the
fluorescence intensity (Supplementary Equation 2).
I = 100 × (Ix – I0) / (Imax – I0) (2)
The mean value of the two control wells was set to 1.00. […]

[3] = system: Streptococcus pyogenes SSI-9; test: Antibacterial activity assay of bead-derived peptides (three concentrations); type: cell-based; parameters: key: +++: inhibition by the 640-fold diluted peptide solution; ++: inhibition by the 160-fold diluted solution; +: inhibition by the 40-fold diluted solution; -: no inhibition; conditions: S. pyogenes, bead-derived peptide solution, three concentrations
Method: as §1
Next, the peptides in groups A and B were subjected to the antibacterial assay and structural determination. Three peptide concentrations were applied to evaluate the growth inhibition of S. pyogenes and determine the antibacterial activity. […] Finally, the structures of the peptides were determined. […]
Antibacterial activity assay of bead-derived peptides. The stock solution of the peptide library was 4- and […]
16-fold diluted with DMSO. The non-diluted stock solution, 4-fold diluted solution, and 16-fold diluted […]
solution were transferred to the 96-well round-bottom plate (3367, Corning, 1.0 µL/well). To the solution of […]
peptide in each well was added a suspension of Streptococcus pyogenes SSI-9 strain in cation adjusted […]
Mueller Hinton Broth [40.0 µL, 2 × 10^5 colony forming units (CFU), 21 g/L Mueller Hinton Broth (Difco), 50 […]
mg/L Ca2+ (adjusted with CaCl2•2H2O), and 25 mg/L Mg2+ (adjusted with MgCl2•6H2O)] supplemented with […]
5% laked horse blood (Nippon Biotest Laboratories). The plate was incubated at 37 °C for 18 h, and the precipitation of the grown cells was examined. […]

| Structure (SMILES) | cell viability/% [1] | H+/Na+ transport activity normalized against the value of 1 (1.00) [2] | antibacterial activity [3] |
| --- | --- | --- | --- |
| CNC(=O)C[C@@H](NC(=O)[C@H](Cc1c[nH]c2ccccc12)NC(=O)[C@H](NC(=O)[C@H](Cc1c[nH]c2ccccc12)NC(=O)[C@@H](CC(C)C)NC(=O)[C@H](Cc1c[nH]c2ccccc12)NC(=O)[C@H](NC(=O)[C@@H](NC(=O)[C@@H](CC(C)C)NC(=O)[C@H](C)NC(=O)[C@H](NC(=O)[C@H](C)NC(=O)CNC(=O)[C@@H](NC=O)C(C)C)C(C)C)C(C)C)C(C)C)C(C)C)C(=O)N[C@@H](Cc1c[nH]c2ccccc12)C(=O)NCCO [compound 9727] (For-VGA[dV]A[dL]V[dV]W[dL]W[dV]W[dD](NHMe)W-NHCH2CH2OH) | 100.0% | 1.10 | - |
| CNC(=O)C[C@@H](NC(=O)[C@H](Cc1c[nH]c2ccccc12)NC(=O)[C@H](NC(=O)[C@H](Cc1c[nH]c2ccccc12)NC(=O)[C@@H](CC(C)C)NC(=O)[C@H](Cc1c[nH]c2ccccc12)NC(=O)[C@H](NC(=O)[C@@H](NC(=O)[C@@H](CC(C)C)NC(=O)[C@H](C)NC(=O)[C@H](NC(=O)[C@H](C)NC(=O)CNC(=O)[C@@H](NC=O)C(C)C)C(C)C)C(C)C)C(C)C)C(C)C)C(=O)N[C@@H](Cc1c[nH]c2ccccc12)C(=O)NCCO [compound 7228] (For-VGA[dV]A[dL]V[dV]W[dL]W[dV]W[dD](NHMe)W-NHCH2CH2OH) | 100.0% | 1.06 | - |
| CC(C)C[C@@H](NC(=O)[C@H](C)NC(=O)CNC(=O)[C@@H](NC=O)C(C)C)C(=O)N[C@@H](C)C(=O)N[C@H](CC(C)C)C(=O)N[C@H](C(=O)N[C@@H](C(=O)N[C@@H](Cc1c[nH]c2ccccc12)C(=O)N[C@@H](C(=O)N[C@@H](Cc1c[nH]c2ccccc12)C(=O)N[C@@H](C(=O)N[C@@H](Cc1c[nH]c2ccccc12)C(=O)N[C@H](CC(C)C)C(=O)N[C@@H](Cc1c[nH]c2ccccc12)C(=O)NCCO)C(C)C)[C@H](C)O)C(C)C)C(C)C [compound 10542] (For-VGA[dL]A[dL]V[dV]W[dT]W[dV]W[dL]W-NHCH2CH2OH) | 100.0% | 1.02 | - |
| CC(C)C[C@@H](NC(=O)[C@H](Cc1c[nH]c2ccccc12)NC(=O)[C@H](NC(=O)[C@H](Cc1c[nH]c2ccccc12)NC(=O)[C@H](NC(=O)[C@H](Cc1c[nH]c2ccccc12)NC(=O)[C@@H](CC(C)C)NC(=O)[C@@H](NC(=O)[C@H](NC(=O)[C@H](C)NC(=O)[C@H](NC(=O)[C@H](C)NC(=O)CNC(=O)[C@@H](NC=O)C(C)C)C(C)C)C(C)C)C(C)C)C(C)C)[C@H](C)O)C(=O)N[C@@H](Cc1c[nH]c2ccccc12)C(=O)NCCO [compound 2580] (For-VGA[dV]A[dV]V[dL]W[dV]W[dT]W[dL]W-NHCH2CH2OH) | 100.0% | 1.00 | - |
| CC(C)C[C@@H](NC(=O)[C@H](C)NC(=O)CNC(=O)[C@@H](NC=O)C(C)C)C(=O)N[C@@H](C)C(=O)N[C@@H](C(=O)N[C@H](C(=O)N[C@@H](C(=O)N[C@@H](Cc1c[nH]c2ccccc12)C(=O)N[C@@H](C(=O)N[C@@H](Cc1c[nH]c2ccccc12)C(=O)N[C@H](CC(C)C)C(=O)N[C@@H](Cc1c[nH]c2ccccc12)C(=O)N[C@H](CC(C)C)C(=O)N[C@@H](Cc1c[nH]c2ccccc12)C(=O)NCCO)C(C)C)[C@H](C)O)C(C)C)C(C)C [compound 9832] (For-VGA[dL]A[dV]V[dT]W[dV]W[dL]W[dL]W-NHCH2CH2OH) | 100.0% | 1.26 | - |
| CNC(=O)C[C@@H](NC(=O)[C@@H](NC(=O)[C@@H](CC(C)C)NC(=O)[C@H](C)NC(=O)[C@H](NC(=O)[C@H](C)NC(=O)CNC(=O)[C@@H](NC=O)C(C)C)C(C)C)C(C)C)C(=O)N[C@@H](Cc1c[nH]c2ccccc12)C(=O)N[C@@H](C(=O)N[C@@H](Cc1c[nH]c2ccccc12)C(=O)N[C@@H](C(=O)N[C@@H](Cc1c[nH]c2ccccc12)C(=O)N[C@H](CC(C)C)C(=O)N[C@@H](Cc1c[nH]c2ccccc12)C(=O)NCCO)C(C)C)C(C)C [compound 11226] (For-VGA[dV]A[dL]V[dD](NHMe)W[dV]W[dV]W[dL]W-NHCH2CH2OH) | 76.8% | 1.04 | - |
| CC(C)C[C@@H](NC(=O)[C@H](C)NC(=O)CNC(=O)[C@@H](NC=O)C(C)C)C(=O)N[C@@H](C)C(=O)N[C@H](CC(C)C)C(=O)N[C@H](C(=O)N[C@H](CC(C)C)C(=O)N[C@@H](Cc1c[nH]c2ccccc12)C(=O)N[C@@H](C(=O)N[C@@H](Cc1c[nH]c2ccccc12)C(=O)N[C@H](CC(C)C)C(=O)N[C@@H](Cc1c[nH]c2ccccc12)C(=O)N[C@@H](C(=O)N[C@@H](Cc1c[nH]c2ccccc12)C(=O)NCCO)C(C)C)[C@H](C)O)C(C)C [compound 10499] (For-VGA[dL]A[dL]V[dL]W[dT]W[dL]W[dV]W-NHCH2CH2OH) | 100.0% | 1.14 | - |
| CC(C)C[C@@H](NC(=O)[C@H](C)NC(=O)[C@H](NC(=O)[C@H](C)NC(=O)CNC(=O)[C@@H](NC=O)C(C)C)[C@H](C)O)C(=O)N[C@H](C(=O)N[C@H](CC(C)C)C(=O)N[C@@H](Cc1c[nH]c2ccccc12)C(=O)N[C@@H](C(=O)N[C@@H](Cc1c[nH]c2ccccc12)C(=O)N[C@H](CC(C)C)C(=O)N[C@@H](Cc1c[nH]c2ccccc12)C(=O)N[C@H](CC(C)C)C(=O)N[C@@H](Cc1c[nH]c2ccccc12)C(=O)NCCO)C(C)C)C(C)C [compound 11561] (For-VGA[dT]A[dL]V[dL]W[dV]W[dL]W[dL]W-NHCH2CH2OH) | 100.0% | 1.01 | - |
| CC(C)C[C@@H](NC(=O)[C@H](C)NC(=O)CNC(=O)[C@@H](NC=O)C(C)C)C(=O)N[C@@H](C)C(=O)N[C@@H](C(=O)N[C@H](C(=O)N[C@@H](C(=O)N[C@@H](Cc1c[nH]c2ccccc12)C(=O)N[C@@H](C(=O)N[C@@H](Cc1c[nH]c2ccccc12)C(=O)N[C@H](CC(C)C)C(=O)N[C@@H](Cc1c[nH]c2ccccc12)C(=O)N[C@H](CC(C)C)C(=O)N[C@@H](Cc1c[nH]c2ccccc12)C(=O)NCCO)C(C)C)C(C)C)C(C)C)C(C)C [compound 2082] (For-VGA[dL]A[dV]V[dV]W[dV]W[dL]W[dL]W-NHCH2CH2OH) | 100.0% | 1.16 | + |
| CC(C)C[C@@H](NC(=O)[C@H](Cc1c[nH]c2ccccc12)NC(=O)[C@H](NC(=O)[C@H](Cc1c[nH]c2ccccc12)NC(=O)[C@H](NC(=O)[C@H](Cc1c[nH]c2ccccc12)NC(=O)[C@@H](CC(C)C)NC(=O)[C@@H](NC(=O)[C@H](NC(=O)[C@H](C)NC(=O)[C@H](NC(=O)[C@H](C)NC(=O)CNC(=O)[C@@H](NC=O)C(C)C)C(C)C)C(C)C)C(C)C)C(C)C)C(C)C)C(=O)N[C@@H](Cc1c[nH]c2ccccc12)C(=O)NCCO [compound 10668] (For-VGA[dV]A[dV]V[dL]W[dV]W[dV]W[dL]W-NHCH2CH2OH) | 57.1% | 1.09 | + |
